This is an account of results in BindingDB's records for doi:10.1016/j.bmc.2008.08.012 (Philipps University Marburg, 2008).

One assay concerns the target Pepsin A (Sus scrofa, UniProt P00791). The assay can be described thus: Enzyme Inhibition Assay. Conditions: 25 °C. How it is done: (§1) Enzyme assay was performed at room temperature on a microplate reader (Safire2TM) using black 96-well microtiter plates purchased from Nunc. Inhibitors and substrates were previously dissolved in 4% DMSO. The hydrolysis of the substrates was recorded as increase in fluorescence intensity. IC50 values were generated by nonlinear regression analysis from plots of vi/v0 versus inhibitor concentration, in which vi is the velocity in presence, and v0 the velocity in the absence of an inhibitor. The kinetic constants were determined by the method of Lineweaver and Burk, and Ki values were consecutively calculated from the following equation: Ki = IC50/[1 + (S/Km)]. The overall error of the assays is estimated to be +/-40%.

Assay [1] deals with T1, Dimer of Gag-Pol polyprotein [501-599] (Human immunodeficiency virus 1, UniProt P03367).
T1 construct: 501-599
The assay can be described thus: Enzyme Inhibition Assay. The settings on record: pH 5.5; 23 °C. As to the method: as §1

By IC50 is commonly meant the concentration needed to halve the response being measured. A low value points to greater potency in that assay.

Pepsin A, sequence (P00791 whole entry): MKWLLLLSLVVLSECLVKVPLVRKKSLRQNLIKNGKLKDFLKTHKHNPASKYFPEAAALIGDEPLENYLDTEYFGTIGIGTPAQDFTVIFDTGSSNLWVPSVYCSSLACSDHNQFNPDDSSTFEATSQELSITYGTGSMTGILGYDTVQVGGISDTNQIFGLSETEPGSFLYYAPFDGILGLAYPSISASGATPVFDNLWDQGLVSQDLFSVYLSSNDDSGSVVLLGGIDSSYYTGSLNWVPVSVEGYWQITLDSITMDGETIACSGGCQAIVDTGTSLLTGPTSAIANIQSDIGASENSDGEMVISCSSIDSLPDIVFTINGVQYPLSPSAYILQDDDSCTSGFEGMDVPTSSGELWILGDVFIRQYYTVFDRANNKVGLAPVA

Regarding `Nc1ccc(S(=O)(=O)N(CCCNCCN(Cc2ccccc2)S(=O)(=O)c2ccc(N)cc2)Cc2ccccc2)cc1` [phenyl-substituted sulfonamides, 6e], the IC50 (at Pepsin A; in assay [1]) was more than 250 µM each time. Turning to `O=C(Cc1ccccc1)N(CCNCCN(Cc1ccccc1)C(=O)Cc1ccccc1)Cc1ccccc1` [carboxamide, 12a], the IC50 (on Pepsin A; in assay [1]) was more than 250 µM each time. As for `O=C(Cc1ccccc1)N(CCCNCCCN(Cc1ccccc1)C(=O)Cc1ccccc1)Cc1ccccc1` [carboxamide, 12c], the IC50 (on Pepsin A; in assay [1]) was more than 250 µM throughout. For the compound `O=S(=O)(c1ccccc1)N(CCCNCCCN(Cc1ccccc1)S(=O)(=O)c1ccccc1)Cc1ccccc1` [phenyl-substituted sulfonamides, 6c], the IC50 (at Pepsin A; in assay [1]) was more than 250 µM each time.

In assay [1], `Nc1ccc(S(=O)(=O)N(CCCNCCCN(Cc2ccccc2)S(=O)(=O)c2ccc(N)cc2)Cc2ccccc2)cc1` [phenyl-substituted sulfonamides, 6f] registered an IC50 of more than 250 µM. As for `O=C(Cc1ccccc1)N(CCCNCCN(Cc1ccccc1)C(=O)Cc1ccccc1)Cc1ccccc1` [carboxamide, 12b], the IC50 (against Pepsin A; in assay [1]) was more than 250 µM in each case.
